Source: ChEMBL document CHEMBL3621060, “Synthesis and anticancer activities of novel 8-azapurine carbocyclic nucleoside hydrazones” (Bioorg Med Chem Lett, 2015)

Legend:
A549 = experiment: Anticancer activity against human A549 cells assessed as inhibition of cell growth at 10 uM incubated for 4 days by CCK8 assay; assay type: functional; details: A549, 96 h, read-out: GI
[1] = Anticancer activity against human HuH7 cells assessed as inhibition of cell growth at 10 uM incubated for 4 days by CCK8 assay; assay type: functional; details: Huh-7, 96 h, read-out: GI
[2] = Anticancer activity against human HuH7 cells assessed as inhibition of cell growth incubated for 4 days by CCK8 assay; assay type: functional, cell-based; details: Huh-7, 96 h
P388 = experiment: Cytotoxicity against mouse P388 cells; assay type: functional; details: read-out: ED50 (the source's name)

SMILES	inhibition of growth at 10 µM (A549)	inhibition of growth at 10 µM [1]	IC50 [2]	EC50 (P388)
CCCSc1nc(N/N=C/c2ccccc2OC)c2nnn([C@@H]3C[C@H](O)[C@@H](O)[C@H]3O)c2n1	31.6%	43.8%	–	–
CCCSc1nc(N/N=C/c2ccc(Cl)cc2)c2nnn([C@@H]3C[C@H](O)[C@@H](O)[C@H]3O)c2n1	34.2%	47.8%	–	–
CCCSc1nc(N/N=C/c2cccc(O)c2)c2nnn([C@@H]3C[C@H](O)[C@@H](O)[C@H]3O)c2n1	21.4%	36.5%	–	–
CCCSc1nc(N/N=C/c2ccccc2)c2nnn([C@@H]3C[C@H](O)[C@@H](O)[C@H]3O)c2n1	22.9%	20.1%	–	–
CCCSc1nc(N/N=C/c2ccc(OC)c(OC)c2)c2nnn([C@@H]3C[C@H](O)[C@@H](O)[C@H]3O)c2n1	28.9%	26.9%	–	–
CCCSc1nc(N/N=C/c2ccc([N+](=O)[O-])cc2)c2nnn([C@@H]3C[C@H](O)[C@@H](O)[C@H]3O)c2n1	67.6%	68%	11.7 µM	–
CCCSc1nc(N/N=C/c2ccccn2)c2nnn([C@@H]3C[C@H](O)[C@@H](O)[C@H]3O)c2n1	38.6%	52.5%	–	–
CCCSc1nc(N/N=C/c2cccs2)c2nnn([C@@H]3C[C@H](O)[C@@H](O)[C@H]3O)c2n1	38.8%	50%	–	–
CCCSc1nc(N/N=C/c2ccc(F)c(F)c2)c2nnn([C@@H]3C[C@H](O)[C@@H](O)[C@H]3O)c2n1	26.9%	31.5%	–	–
CCCSc1nc(N/N=C/c2ccccc2O)c2nnn([C@@H]3C[C@H](O)[C@@H](O)[C@H]3O)c2n1	24.3%	34.5%	–	–
CCCSc1nc(N/N=C/c2cccc([N+](=O)[O-])c2)c2nnn([C@@H]3C[C@H](O)[C@@H](O)[C@H]3O)c2n1	68%	58.5%	–	–
CCCSc1nc(N/N=C/c2ccc(OC)cc2)c2nnn([C@@H]3C[C@H](O)[C@@H](O)[C@H]3O)c2n1	69.2%	57.3%	–	–
CCCSc1nc(N/N=C/c2ccccc2Cl)c2nnn([C@@H]3C[C@H](O)[C@@H](O)[C@H]3O)c2n1	30.5%	37.7%	–	–
Nc1ncnc2c1nnn2[C@@H]1C[C@H](CO)[C@H](O)[C@H]1O	–	–	–	0.38 µM
CCCSc1nc(N/N=C/c2ccc(Cl)cc2Cl)c2nnn([C@@H]3C[C@H](O)[C@@H](O)[C@H]3O)c2n1	41.6%	51.2%	–	–
CCCSc1nc(N/N=C/c2ccc(O)cc2)c2nnn([C@@H]3C[C@H](O)[C@@H](O)[C@H]3O)c2n1	32.3%	43.8%	–	–
CCCSc1nc(N/N=C/c2ccc(O)cc2O)c2nnn([C@@H]3C[C@H](O)[C@@H](O)[C@H]3O)c2n1	33%	38.3%	–	–
O=c1[nH]cc(F)c(=O)[nH]1 [FLUOROURACIL]	64.5%	78.7%	–	–
